From patent US9540381B2, “Anti-angiogenesis compound, intermediate and use thereof” (Guangzhou KangRui Biological Pharmaceutical Technology Co., …, priority 2013, dated 2017)
Entries after “also recorded” stand apart in the source; their conditions may differ.

Columns and labels:
FGFR2 = target: T1, FGFR2 (Homo sapiens, UniProt P21802); assay: Inhibition specificity, FGFR2; assay type: biochemical; conditions: 5000 nM, average of two tests; read-out: Average Inhibition Rate (%) FGFR2
T1 construct: purchased CARNA

[1] = tested on: vessel development of the FLK1-GFP transgenic danio rerio; assay: Inhibition test on vascular development of Danio rerio; assay type: in vivo; conditions: for inhibition at 0.1 µM / inhibition at 1 µM / inhibition at 5 µM / inhibition at 10 µM / inhibition at 20 µM / inhibition at 40 µM / inhibition at 100 µM: Danio rerio, after 24 hours, n = 5, read-out: inhibition rate on the development of vertebral vessel; for inhibition at 0.1 µM: 100 nM; for inhibition effect on the vessel development of the danio rerio (in words): Table 1 and FIG. 7
Procedure: Female fish can spawn 200-300 […], and the fertilization and embryonic development processes are conducted in vitro. They can grow up within 24 hours, and the embryo is transparent, which is suitable for observing the change of intracorporal organs and tissues. These characteristics make the danio rerio become to be one of the five fish laboratory animals accepted by the international organization for standardization. Currently, the danio rerio is widely used in human disease studies, especially used in cardiovascular system studies. The danio rerio can be used for screening the influence of small molecular compounds on angiogenesis. Experimental Method: This experiment uses FLK1-GFP transgenic danio rerio as an animal model which is generally used for screening the influence of compounds on angiogenesis. Vessel can be in vivo observed under fluorescence microscope (Suk-Won Jin, 2005, Development). The selected embryo of the postnatal FLK1-GFP transgenic danio rerio was placed into a culture dish and incubated for 3-5 days in an incubator at 28° C. […] Examine the developmental condition of the vertebral vessel after 24 hours and take photo by use of the fluorescence microscope.

CHEK1 = target: T2, CHEK1 (Homo sapiens, UniProt O14757); assay: Inhibition specificity, CHEK1; assay type: biochemical; conditions: 5000 nM, average of two tests; read-out: Average Inhibition Rate (%) CHEK1
T2 construct: purchased CARNA

JAK2 = target: T3, JAK2 (Homo sapiens, UniProt O60674); assay: Inhibition specificity, JAK2; assay type: biochemical; conditions: 5000 nM, average of two tests; read-out: Average Inhibition Rate (%) JAK2
T3 construct: purchased INVITROGEN

BRAF = target: T4, BRAF (Homo sapiens, UniProt P15056); assay: Inhibition specificity, BRAF; assay type: biochemical; conditions: 5000 nM, average of two tests; read-out: Average Inhibition Rate (%) BRAF
T4 construct: purchased UPSTATE

EGFR = EGFR (Homo sapiens, UniProt P00533); assay: Inhibition specificity, EGFR; assay type: biochemical; conditions: 5000 nM, average of two tests; read-out: Average Inhibition Rate (%) EGFR
AURORA-B = target: T5, AURORA-B (Homo sapiens, UniProt Q96GD4); assay: Inhibition specificity, AURORA-B; assay type: biochemical; conditions: 5000 nM, average of two tests; read-out: Average Inhibition Rate (%) AURORA-B
T5 construct: purchased CARNA

DMPK = target: T6, DMPK (Homo sapiens, UniProt Q09013); assay: Inhibition specificity, DMPK; assay type: biochemical; conditions: 5000 nM, average of two tests; read-out: Average Inhibition Rate (%) DMPK
T6 construct: purchased INVITROGEN

corneal angiogenesis = assay: Mice corneal chemical burn model; conditions: 100 uM subconjunctival injection then drops twice a day, 7 days
choroidal angiogenesis = assay: Laser-induced choroidal angiogenesis (CNV) animal model; assay type: in vivo, c57/BL mice; conditions: 1 uM injected into the eye after laser, 5 days
Procedure: The […]57/BL (Jax Lab, US), and the experiment is conducted on laser-induced Choroidal Angiogenesis (CNV) animal model. This model is a widely used animal model used for studying the influence of a medicament on CNV development of wet macular degeneration. […] Only the laser points, which were observed as bubble indicating the fracture of Bruch membrane, were considered to be studied. Inject immediately after laser implementation: the right eye was injected 1 uM compound 2-2, and the left eye was injected PBS having the same volume as the medicament as a control. Kill the animal 5 days after injection and obtain the eyeball. After removing the anterior segment, vitreous body and retina, prepare flat mounts of choroid and meanwhile dye with isolectin. Take photos by Zeiss fluorescence microscope system and measure CNV area.

T3 sequence (O60674 whole entry, species assumed): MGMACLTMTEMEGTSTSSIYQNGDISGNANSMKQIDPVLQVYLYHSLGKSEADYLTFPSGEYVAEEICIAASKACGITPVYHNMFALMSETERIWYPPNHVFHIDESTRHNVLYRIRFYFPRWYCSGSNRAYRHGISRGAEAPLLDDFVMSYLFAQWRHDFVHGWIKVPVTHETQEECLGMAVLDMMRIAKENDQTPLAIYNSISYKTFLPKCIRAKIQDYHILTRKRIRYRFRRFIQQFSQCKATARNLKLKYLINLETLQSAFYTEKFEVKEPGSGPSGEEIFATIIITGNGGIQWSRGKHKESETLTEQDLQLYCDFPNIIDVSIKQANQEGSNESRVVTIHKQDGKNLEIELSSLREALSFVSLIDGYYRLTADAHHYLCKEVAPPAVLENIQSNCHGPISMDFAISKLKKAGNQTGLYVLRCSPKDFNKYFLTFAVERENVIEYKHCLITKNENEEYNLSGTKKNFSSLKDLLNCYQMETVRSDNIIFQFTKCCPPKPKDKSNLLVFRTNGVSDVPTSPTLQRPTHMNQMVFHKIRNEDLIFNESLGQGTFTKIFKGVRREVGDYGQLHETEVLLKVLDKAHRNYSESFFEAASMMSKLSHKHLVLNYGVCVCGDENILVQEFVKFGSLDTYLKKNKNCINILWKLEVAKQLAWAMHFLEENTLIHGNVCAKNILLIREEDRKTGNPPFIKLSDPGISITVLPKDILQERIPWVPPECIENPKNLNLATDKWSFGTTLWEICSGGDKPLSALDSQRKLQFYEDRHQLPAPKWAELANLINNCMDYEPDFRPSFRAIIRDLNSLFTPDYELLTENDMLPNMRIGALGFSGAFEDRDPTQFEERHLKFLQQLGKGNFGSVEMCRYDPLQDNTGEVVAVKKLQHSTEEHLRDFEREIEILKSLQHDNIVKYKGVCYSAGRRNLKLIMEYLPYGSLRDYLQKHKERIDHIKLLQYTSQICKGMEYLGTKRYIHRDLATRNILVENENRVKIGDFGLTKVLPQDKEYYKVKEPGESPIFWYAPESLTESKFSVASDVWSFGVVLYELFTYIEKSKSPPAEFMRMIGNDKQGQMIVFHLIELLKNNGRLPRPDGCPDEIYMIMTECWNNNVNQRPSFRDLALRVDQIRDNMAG
T6 sequence (Q09013 whole entry, species assumed): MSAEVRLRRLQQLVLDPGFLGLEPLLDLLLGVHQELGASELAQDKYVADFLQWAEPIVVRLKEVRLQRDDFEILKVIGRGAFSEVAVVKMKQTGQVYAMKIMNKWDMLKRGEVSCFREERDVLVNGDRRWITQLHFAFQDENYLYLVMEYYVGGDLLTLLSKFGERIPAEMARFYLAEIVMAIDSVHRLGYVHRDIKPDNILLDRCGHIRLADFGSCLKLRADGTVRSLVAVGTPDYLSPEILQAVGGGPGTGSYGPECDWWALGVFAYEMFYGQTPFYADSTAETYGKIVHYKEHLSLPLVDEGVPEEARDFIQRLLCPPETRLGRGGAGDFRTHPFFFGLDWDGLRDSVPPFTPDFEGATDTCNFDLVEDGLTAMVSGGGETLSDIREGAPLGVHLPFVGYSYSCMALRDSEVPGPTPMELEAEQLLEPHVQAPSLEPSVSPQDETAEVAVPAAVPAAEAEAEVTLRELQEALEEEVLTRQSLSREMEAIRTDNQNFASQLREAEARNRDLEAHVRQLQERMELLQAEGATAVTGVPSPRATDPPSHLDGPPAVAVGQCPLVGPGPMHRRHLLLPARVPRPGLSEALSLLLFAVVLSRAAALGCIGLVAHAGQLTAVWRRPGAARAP
Sequence of EGFR (P00533 25-1210, species assumed): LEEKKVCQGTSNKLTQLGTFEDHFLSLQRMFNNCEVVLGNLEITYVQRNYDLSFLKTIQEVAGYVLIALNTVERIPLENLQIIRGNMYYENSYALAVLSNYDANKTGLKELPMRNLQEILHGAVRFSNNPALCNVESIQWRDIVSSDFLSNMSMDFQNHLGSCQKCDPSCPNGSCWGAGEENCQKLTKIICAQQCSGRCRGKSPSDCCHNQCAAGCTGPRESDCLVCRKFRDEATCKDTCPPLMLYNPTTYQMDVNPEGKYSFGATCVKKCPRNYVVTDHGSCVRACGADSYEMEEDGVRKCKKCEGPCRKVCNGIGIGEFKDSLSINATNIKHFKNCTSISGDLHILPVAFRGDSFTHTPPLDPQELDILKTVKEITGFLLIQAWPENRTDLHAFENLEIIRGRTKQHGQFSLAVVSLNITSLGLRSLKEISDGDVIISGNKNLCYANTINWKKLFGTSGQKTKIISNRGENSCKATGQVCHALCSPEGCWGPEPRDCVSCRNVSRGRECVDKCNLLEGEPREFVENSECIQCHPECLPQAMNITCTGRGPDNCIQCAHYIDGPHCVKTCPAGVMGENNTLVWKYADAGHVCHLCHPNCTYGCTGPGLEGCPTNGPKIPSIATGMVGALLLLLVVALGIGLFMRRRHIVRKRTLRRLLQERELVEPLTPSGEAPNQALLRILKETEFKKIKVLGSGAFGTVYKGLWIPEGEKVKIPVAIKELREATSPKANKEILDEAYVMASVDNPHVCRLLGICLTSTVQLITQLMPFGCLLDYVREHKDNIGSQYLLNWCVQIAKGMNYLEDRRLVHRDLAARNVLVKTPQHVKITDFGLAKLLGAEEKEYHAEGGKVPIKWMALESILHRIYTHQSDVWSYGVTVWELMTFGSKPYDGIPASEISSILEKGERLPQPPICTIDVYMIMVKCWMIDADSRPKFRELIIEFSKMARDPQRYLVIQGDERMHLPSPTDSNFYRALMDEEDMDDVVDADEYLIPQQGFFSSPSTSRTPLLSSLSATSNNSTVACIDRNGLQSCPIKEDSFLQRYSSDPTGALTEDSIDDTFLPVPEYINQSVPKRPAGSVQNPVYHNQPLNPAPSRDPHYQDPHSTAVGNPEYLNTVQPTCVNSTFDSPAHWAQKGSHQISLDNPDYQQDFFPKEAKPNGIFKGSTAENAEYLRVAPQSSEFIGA
T4 sequence (P15056 whole entry, species assumed): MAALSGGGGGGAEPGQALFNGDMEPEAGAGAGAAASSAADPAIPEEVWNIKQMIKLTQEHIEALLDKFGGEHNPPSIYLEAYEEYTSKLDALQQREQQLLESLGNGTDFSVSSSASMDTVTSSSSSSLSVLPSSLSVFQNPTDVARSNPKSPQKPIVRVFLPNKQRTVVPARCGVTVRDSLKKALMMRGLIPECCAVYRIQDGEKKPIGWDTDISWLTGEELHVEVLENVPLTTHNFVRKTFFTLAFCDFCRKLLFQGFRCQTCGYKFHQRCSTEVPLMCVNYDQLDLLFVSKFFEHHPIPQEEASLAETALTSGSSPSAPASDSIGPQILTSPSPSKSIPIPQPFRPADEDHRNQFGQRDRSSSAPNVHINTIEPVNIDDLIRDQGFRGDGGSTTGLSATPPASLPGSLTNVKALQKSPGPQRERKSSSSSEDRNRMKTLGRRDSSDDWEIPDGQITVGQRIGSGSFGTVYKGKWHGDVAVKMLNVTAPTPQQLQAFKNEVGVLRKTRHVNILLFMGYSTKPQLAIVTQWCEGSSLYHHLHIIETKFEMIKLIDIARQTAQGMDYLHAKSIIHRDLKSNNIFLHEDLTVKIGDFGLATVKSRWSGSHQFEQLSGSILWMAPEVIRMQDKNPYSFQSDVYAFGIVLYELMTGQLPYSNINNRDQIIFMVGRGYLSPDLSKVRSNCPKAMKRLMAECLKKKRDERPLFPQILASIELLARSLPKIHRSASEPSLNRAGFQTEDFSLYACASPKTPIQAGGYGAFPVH
T5 sequence (Q96GD4 whole entry): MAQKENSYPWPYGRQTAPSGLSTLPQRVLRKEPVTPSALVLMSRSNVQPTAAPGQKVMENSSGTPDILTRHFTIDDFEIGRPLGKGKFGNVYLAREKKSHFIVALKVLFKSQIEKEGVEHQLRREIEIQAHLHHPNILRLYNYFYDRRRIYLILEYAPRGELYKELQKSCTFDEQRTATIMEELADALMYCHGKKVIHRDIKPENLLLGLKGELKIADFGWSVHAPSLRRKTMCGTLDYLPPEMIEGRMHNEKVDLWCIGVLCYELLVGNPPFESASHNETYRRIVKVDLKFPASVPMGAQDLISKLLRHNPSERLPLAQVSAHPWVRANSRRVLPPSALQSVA
T2 sequence (O14757 whole entry, species assumed): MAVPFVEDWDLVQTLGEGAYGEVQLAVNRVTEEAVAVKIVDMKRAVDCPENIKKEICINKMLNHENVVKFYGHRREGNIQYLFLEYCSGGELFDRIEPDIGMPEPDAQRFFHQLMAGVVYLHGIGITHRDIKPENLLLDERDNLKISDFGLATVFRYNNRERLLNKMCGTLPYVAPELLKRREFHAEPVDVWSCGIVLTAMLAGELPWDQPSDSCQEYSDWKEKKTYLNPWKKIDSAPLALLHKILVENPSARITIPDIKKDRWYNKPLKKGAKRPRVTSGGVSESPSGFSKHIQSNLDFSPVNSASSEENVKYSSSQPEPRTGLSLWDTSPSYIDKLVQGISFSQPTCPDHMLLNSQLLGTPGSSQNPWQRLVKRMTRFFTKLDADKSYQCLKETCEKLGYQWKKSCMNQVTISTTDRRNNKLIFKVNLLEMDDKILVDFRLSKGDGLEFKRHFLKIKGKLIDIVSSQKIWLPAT

| inhibition at 5 µM (FGFR2) | inhibition at 5 µM (CHEK1) | inhibition at 5 µM (JAK2) | inhibition at 5 µM (BRAF) | inhibition at 5 µM (EGFR) | inhibition at 5 µM (AURORA-B) | inhibition at 5 µM (DMPK) | Structure (SMILES) | inhibition at 0.1 µM [1] | inhibition at 1 µM [1] | inhibition at 5 µM [1] | inhibition at 10 µM [1] | inhibition at 20 µM [1] | inhibition at 40 µM [1] | inhibition at 100 µM [1] | inhibition effect on the vessel development of the danio rerio (in words) [1] | effect on corneal angiogenesis and bleeding (in words, FIG. 11) (corneal angiogenesis) | inhibition of choroidal angiogenesis (in words, FIG. 9) (choroidal angiogenesis) |
| --- | --- | --- | --- | --- | --- | --- | --- | --- | --- | --- | --- | --- | --- | --- | --- | --- | --- |
| ~36% | 2.54% | ~21% | 4.11% | 5.35% | ~31% | 1.53% | Nc1cc(Oc2ccc3c(C(=O)Nc4cccc(C(F)(F)F)c4)cccc3n2)ncn1 [Compound 2-1] | 10% | 50% | 100% | 100% | 100% | 100% | 100% | have inhibition effect on the vessel development of the danio rerio |  |  |
| > 61% | 0.695% | 7.83% | 37.4% | -0.625% | 13.6% | 4.5% | Nc1nccc(Oc2ccc3c(C(=O)Nc4cccc(C(F)(F)F)c4)cccc3n2)n1 [Compound 2-2] | 50% | 100% | 100% | 100% | 100% | 100% | 100% | have inhibition effect on the vessel development of the danio rerio | obviously reduces angiogenesis and bleeding | could obviously inhibit the choroidal angiogenesis; also recorded: obviously inhibiting choroidal angiogenesis |
